According to ChEMBL document CHEMBL1125988, “Restricted rotation analogs of decarboxylated S-adenosylmethionine as inhibitors of polyamine biosynthesis” (Bioorg Med Chem Lett, 1991):

Tests used:
L1210 [1] = assay: Compound was evaluated for % of growth control in cultured L1210 cells; format: functional, Mus musculus
L1210 [2] = assay: Tested for inhibitory activity on cultured L1210 cells; format: functional, cell-based; conditions: Mus musculus
[3] = Lethal dose of compound towards active site probes for spermidine and spermine synthase in L1210 cultured cell assay,; format: toxicity, cell-based; conditions: mouse, L1210 cells; read-out: LD50 (the source's name)
L1210 [4] = assay: Ornithine decarboxylase activity was measured by the enzymatic decarboxylation of L-[14C-COOH]-ornithine as nmol CO2 produced per hour per mg of protein in L1210 cells; format: functional, Mus musculus
L1210 [5] = assay: S-adenosyl-methionine decarboxylase activity was measured by the enzymatic decarboxylation of L-[14C-COOH]-methionine as nmol CO2 produced per hour per mg of protein in L1210 cells; format: functional, Mus musculus
L1210 [6] = assay: Cellular polyamine (SPD) content was determined in L1210 cells.; format: functional, Mus musculus
L1210 [7] = assay: Cellular polyamine (putrescine) content was determined in L1210 cells.; format: functional, Mus musculus
L1210 [8] = assay: Cellular polyamine (spermine) content was determined in L1210 cells.; format: functional, Mus musculus

In the case of Br.C[S+](C[C@H]1O[C@@H](n2cnc3c(N)ncnc32)[C@H](O)[C@@H]1O)C1CCNC1.[Br-] (stereo partly specified), the Growth (L1210 [1]) is reported as 58%, the IC50 (L1210 [2]) is reported as 1000 µM and the CC50 [3] is reported as 1000 µM. For the same molecule, the Activity (L1210 [4]) was 6.16 (nM of CO2) hr-1 mg-1, the Activity (L1210 [5]) was 500 (nM of CO2) hr-1 mg-1 and the Cellular content (L1210 [6]) was 208 pM (10e6*cells)-1. The Cellular content (L1210 [7]) was 170 pM (10e6*cells)-1 and the Cellular content (L1210 [8]) was 1290 pM (10e6*cells)-1.
With Nc1ncnc2c1ncn2[C@@H]1O[C@H](CSC2CCNC2)[C@@H](O)[C@H]1O (stereo partly specified) the Growth (L1210 [1]) was 46%, the IC50 (L1210 [2]) was 100 µM and the CC50 [3] was 100 µM. For the same molecule, the Activity (L1210 [4]) was 2.98 (nM of CO2) hr-1 mg-1, the Activity (L1210 [5]) was 367 (nM of CO2) hr-1 mg-1 and the Cellular content (L1210 [6]) was 410 pM (10e6*cells)-1. The Cellular content (L1210 [7]) was 37 pM (10e6*cells)-1 and the Cellular content (L1210 [8]) was 1000 pM (10e6*cells)-1.
